The record followed here is patent US20090142330A1, “Use of inactive-plasmin to treat chronic inflammatory disease and tumors” (The Government of the United States of America as …, priority 2007, published 2009).

The subject of assay [1] is MMP-1 production by monocytes. As to the kind of experiment: MMP-1 protein in monocyte conditioned media, Western blot. The assay is classed as cell-based, human. The text has this:
Reagents. High molecular weight urokinase plasminogen activator (HMW-uPA), low molecular weight uPA (LMW-uPA), amino-terminal fragment-uPA (ATF-uPA) and α2-antiplasmin were obtained from American Diagnostica Inc. (Stamford, Conn.). […] LPS Escherichia coli 05:B55 was purchased from Sigma-Aldrich (St. Louis, Mo.). ERK1/2/phospho-ERK1/2 and p38/phospho-p38 antibodies were from Cell Signaling Technology (Beverly, Mass.). MMP-1 antibodies used were rabbit polyclonal antibodies against MMP-1 (provided by Dr. Henning Birkedal-Hansen, NIDCR/NIH) and a mouse anti-human MMP-1 monoclonal antibody (Chemicon International, Inc., Temecula, Calif.). Rabbit anti-COX-2 antibodies were obtained from Cayman Chemical Company (Ann Arbor, Mich.) and mouse anti-β-actin antibodies were from Chemicon International, Inc., Temecula, Calif.). Purification and culture of human monocytes. Human peripheral blood cells were obtained by leukapheresis of non-disease subjects. The monocyte fraction was purified by counter-flow centrifugal elutriation as previously described (Wahl et al., Cell Immunol. 85: 373-383, 1984; and Wahl et al., “In Current Protocols in Immunology,” eds. John Wiley & Sons, Inc. NY. Vol. 2: 7.6A.1-7.6A.10., 2005) and contained greater than 90% monocytes as determined by morphology and flow cytometry. Monocytes were cultured in serum-free Dulbecco Modified Eagle's Medium (DMEM; Cambrex, Walkersville, Md.) supplemented with 2 mM L-glutamine (Mediatech, Herndon, Va.) and 10 μg/ml gentamycin (Cambrex, Walkersville, Md.). Western blot analysis of MMP-1, MAPKs and COX-2. For MMP-1 determination, purified monocytes were cultured at a density of 5×10^6/ml of DMEM in 12 well polystyrene plates (Corning Incorporated Life Sciences, Lowell, Mass.). After 36 to 48 hours of treatment with reagents, the conditioned media were centrifuged and collected. Bovine serum albumin (BSA; 40 μg/ml) was added to the culture supernatants prior to the precipitation of the proteins with cold ethanol (final concentration, 60%) for at least 15 min at −70° C. The proteins were pelleted by microcentrifuging at 20,800×g for 12 min, washed with ethanol, and lyophilized by rotary evaporation. The lyophilized proteins were resuspended in sodium dodecyl sulfate (SDS)-Laemmli buffer [500 mM Tris-HCl (pH 6.8)/10% SDS/0.01% bromophenol-blue/20% glycerol], reduced with 5% β-mercaptoethanol, heated for 4 min at 100° C., and electrophoresed on a 10 or 12% Tris-glycine gel in SDS running buffer [25 mM Tris-HCl (pH 8.3)/192 mM glycine/[…]]. The proteins were transferred onto 0.45 μm nitrocellulose in a buffer containing 25 mM Tris-HCl (pH 8.3)/192 mM glycine/20% methanol and blocked with 50 mM Tris-HCl (pH 7.5)/150 mM NaCl (TBS) containing 5% nonfat dry milk for at least 1 hour. The blots were then incubated overnight with antibodies against MMP-1.
(§1) Western blots for MMP-1, MAPKs and COX-2 were incubated overnight with primary antibodies, washed and analyzed by the addition of Alexa Fluor 680 goat anti-rabbit or Alexa Fluor 750 goat anti-mouse antibodies (Molecular Probes® Inc., Eugene, Oreg.) and the infrared fluorescence detected with the Odyssey infrared imaging system (LI-COR, Lincoln, Nebr.). Densitometry analysis of the bands on the Western blots was determined with the LI-COR software analysis program or the ImageQuant software analysis program (Amersham Biosciences, Piscataway, N.J.).
(A western blot detects proteins with antibodies after separation by electrophoresis.)

In the next assay the test system is cyclooxygenase-2 (COX-2). In words: COX-2 protein in monocyte membranes, Western blot. It counts as cell-based, human. The following applies: LPS 25 ng/ml; HMW-uPA 30 nM or plasmin 360 nM; FIG. 4A. The procedure: Cell protein isolation for the determination of COX-2 protein levels were prepared as previously described (Zhang et al., J. Clin. Invest. 99: 894-900, 1997). Briefly, 20×10^6 monocytes in 4 ml of DMEM were cultured in suspension in 17 ml polypropylene tubes overnight in the presence or absence of reagents. The cells were then washed in phosphate buffered saline with protease inhibitors. The cell pellets were resuspended in 250 mM sucrose containing protease inhibitors and sonicated (Ultrasonic Cell Disrupter, Kontes, American Instrument Exchange, Inc., Haverhill, Mass.). Nuclear debris and unbroken cells were pelleted at 100×g and the supernatant microfuged at 1,500×g to pellet cell membrane proteins. Equal amounts of protein were loaded onto 12% Tris Glycine gels. […] Equal loading of samples was measured with mouse anti-β-actin antibodies.
as §1

For the substance plasmin, the “protein levels of MMP-1” value in assay [1] (LPS (25 ng/ml) stimulated monocytes, indicated concentrations, FIG. 1A / 2B) was “dose-dependent increase”. Further, the “induction of MMP-1 protein” value in assay [1] (unstimulated (control) monocytes, no LPS) is recorded as “did not induce MMP-1”. Further, the “LPS-induced COX-2 protein level” value with cyclooxygenase-2 (COX-2) is “increased”.
